Measurements as given in ChEMBL document CHEMBL1136278, “Synthesis and anticancer effect of B-ring trifluoromethylated flavonoids” (Bioorg Med Chem Lett, 2003).

Tested on: SGC-7901
Experiment: In vitro anti-cancer activity against SGC-7901 cell
Type: functional, cell-based
Conditions: Homo sapiens

IC50 [µM] | SMILES
30.8 | CCCCCCCOc1cc(OCCCCCCC)c2c(=O)cc(-c3ccc(C(F)(F)F)cc3)oc2c1
18.1 | CCCCCCCCOc1cc(OCCCCCCCC)c2c(=O)cc(-c3ccc(C(F)(F)F)cc3)oc2c1
5.61 | CCCOc1ccc2c(=O)cc(-c3ccc(C(F)(F)F)cc3)oc2c1
5 | O=c1cc(-c2ccc(C(F)(F)F)cc2)oc2cc(OCc3ccccc3)cc(OCc3ccccc3)c12
44 | CCOc1cc(OCC)c2c(=O)cc(-c3ccc(C(F)(F)F)cc3)oc2c1
28.5 | CCOc1ccc2c(=O)cc(-c3ccc(C(F)(F)F)cc3)oc2c1
72.5 | CCOc1cc(OCC)c2c(=O)c(CC)c(-c3ccc(C(F)(F)F)cc3)oc2c1
2.7 | CCCOc1cc(OCCC)c2c(=O)cc(-c3ccc(C(F)(F)F)cc3)oc2c1
8.64 | CCCOc1cc(OCCC)c2c(=O)c(CCC)c(-c3ccc(C(F)(F)F)cc3)oc2c1
4.37 | COc1cc(OC)c2c(=O)cc(-c3ccc(C(F)(F)F)cc3)oc2c1
6.62 | O=c1cc(-c2ccc(C(F)(F)F)cc2)oc2cc(O)cc(O)c12
8.28 | COc1ccc2c(=O)cc(-c3ccc(C(F)(F)F)cc3)oc2c1
10.1 | COc1cc(OC)c2c(=O)c(C)c(-c3ccc(C(F)(F)F)cc3)oc2c1

More lines, now with the values behind:

SMILES | IC50 [µM]
COc1ccc2c(c1)O/C(=C\c1ccc(C(F)(F)F)cc1)C2=O | 21.2
C=CCOc1ccc2c(=O)cc(-c3ccc(C(F)(F)F)cc3)oc2c1 | 5.26
O=c1cc(-c2ccc(C(F)(F)F)cc2)oc2cc(O)ccc12 | 17.8
COc1cc(O)c2c(=O)cc(-c3ccccc3)oc2c1C(F)(F)F | 5.9
O=C1/C(=C/c2ccc(C(F)(F)F)cc2)Oc2cc(O)ccc21 | 4.31
CCCCCCCCOc1ccc2c(=O)cc(-c3ccc(C(F)(F)F)cc3)oc2c1 | 4.16
CCOc1ccc2c(c1)O/C(=C\c1ccc(C(F)(F)F)cc1)C2=O | 15.6
CCCCCCCCCCOc1cc(OCCCCCCCCCC)c2c(=O)cc(-c3ccc(C(F)(F)F)cc3)oc2c1 | 9.02
CC(=O)Oc1c(C(F)(F)F)c(O)c2c(=O)cc(-c3ccccc3)oc2c1C(F)(F)F | 8.6
CCCCCCCOc1ccc2c(c1)O/C(=C\c1ccc(C(F)(F)F)cc1)C2=O | 5.35
O=C1/C(=C/c2ccc(C(F)(F)F)cc2)Oc2cc(OCc3ccccc3)ccc21 | 14.7
C=CCOc1ccc2c(c1)O/C(=C\c1ccc(C(F)(F)F)cc1)C2=O | 3.05
